In patent US7981893B2, “Heteroaryl compounds, compositions thereof, and methods of treatment therewith” (Signal Pharmaceuticals, LLC, priority 2006, dated 2011):

Structure (SMILES) | melting point
Cc1cc(O)ccc1-c1cnc2[nH]c(=O)n(CC3CCCCC3)c2n1 [Compound 115, 1-(Cyclohexylmethyl)-6-(4-hydroxy-2-methylphenyl)-1H-imidazo[4,5-b]pyrazin-2(3H)-one] | 212 to 214 °C
COCCn1c(=O)[nH]c2ncc(-c3ccc(O)cc3)nc21 [Compound 117, 6-(4-Hydroxyphenyl)-1-(2-methoxyethyl)-1H-imidazo[4,5-b]pyrazin-2(3H)-one] | 236 to 237 °C
COCCCn1c(=O)[nH]c2ncc(-c3ccc(O)cc3)nc21 [Compound 118, 6-(4-Hydroxyphenyl)-1-(3-methoxypropyl)-1H-imidazo[4,5-b]pyrazin-2(3H)-one] | 208 to 210 °C
COc1cccc(CN2CC(=O)Nc3ncc(-c4ccc(O)cc4)nc32)c1 [Compound 119, 6-(4-Hydroxyphenyl)-4-(3-methoxybenzyl)-3,4-dihydropyrazino[2,3-b]pyrazin-2(1H)-one] | 282 to 283 °C
O=c1[nH]c2ncc(-c3ccc(O)cc3)nc2n1CCC1CCOCC1 [Compound 120, 6-(4-Hydroxyphenyl)-1-(2-(tetrahydro-2H-pyran-4-yl)ethyl)-1H-imidazo[4,5-b]pyrazin-2(3H)-one] | 276 to 277 °C
O=c1[nH]c2ncc(-c3ccc(O)cc3)nc2n1CCc1ccccc1 [Compound 121, 6-(4-Hydroxyphenyl)-1-phenethyl-1H-imidazo[4,5-b]pyrazin-2(3H)-one] | 283 to 284 °C
O=c1[nH]c2ncc(-c3ccn[nH]3)nc2n1CC1CCCCC1 [Compound 125, 1-(Cyclohexylmethyl)-6-(1H-pyrazol-5-yl)-1H-imidazo[4,5-b]pyrazin-2(3H)-one] | 264 to 266 °C
O=c1[nH]c2ncc(-c3cn[nH]c3)nc2n1CC1CCCCC1 [Compound 126, 1-(Cyclohexylmethyl)-6-(1H-pyrazol-4-yl)-1H-imidazo[4,5-b]pyrazin-2(3H)-one] | 246 to 248 °C
O=C1NCc2cc(-c3cnc4[nH]c(=O)n(CC5CCCCC5)c4n3)ccc21 [Compound 127, 1-(Cyclohexylmethyl)-6-(1-oxoisoindolin-5-yl)-1H-imidazo[4,5-b]pyrazin-2(3H)-one] | 337 to 339 °C
O=c1[nH]c2ncc(-c3ccc(O)cc3)nc2n1C1CCOCC1 [Compound 132, 6-(4-Hydroxyphenyl)-1-(tetrahydro-2H-pyran-4-yl)-1H-imidazo[4,5-b]pyrazin-2(3H)-one] | 382 to 383 °C
O=c1[nH]c2ncc(-c3ccc(O)cc3)nc2n1CC1CCNCC1 [Compound 133, 6-(4-Hydroxyphenyl)-1-(piperidin-4-ylmethyl)-1H-imidazo[4,5-b]pyrazin-2(3H)-one] | 300 °C (dec.)
COc1cc(-c2cnc3[nH]c(=O)n(CC4CCCCC4)c3n2)ccn1 [Compound 136, 1-(Cyclohexylmethyl)-6-(2-methoxypyridin-4-yl)-1H-imidazo[4,5-b]pyrazin-2(3H)-one] | 295 to 297 °C
O=C1Cc2ccc(-c3cnc4[nH]c(=O)n(CC5CCCCC5)c4n3)cc2N1 [Compound 140, 1-(Cyclohexylmethyl)-6-(2-oxoindolin-6-yl)-1H-imidazo[4,5-b]pyrazin-2(3H)-one] | 334 to 336 °C
Cc1cc(C(=O)O)ccc1-c1cnc2[nH]c(=O)n(CC3CCCCC3)c2n1 [Compound 141, 4-(3-(Cyclohexylmethyl)-2-oxo-2,3-dihydro-1H-imidazo[4,5-b]pyrazin-5-yl)-3-methyl benzoic acid] | 244 to 247 °C
CNC(=O)c1ccc(-c2cnc3[nH]c(=O)n(CC4CCOCC4)c3n2)cc1 [Compound 142, N-Methyl-4-(2-oxo-3-((tetrahydro-2H-pyran-4-yl)methyl)-2,3-dihydro-1H-imidazo[4,5-b]pyrazin-5-yl)benzamide] | 328 to 330 °C
NC(=O)c1ccc(-c2cnc3[nH]c(=O)n(CC4CCOCC4)c3n2)cc1 [Compound 143, 4-(2-oxo-3-((Tetrahydro-2H-pyran-4-yl)methyl)-2,3-dihydro-1H-imidazo[4,5-b]pyrazin-5-yl)benzamide] | 273 to 275 °C
CC(C)(O)c1ccc(-c2cnc3[nH]c(=O)n(CC4CCOCC4)c3n2)cc1 [Compound 145, 6-(4-(2-Hydroxypropan-2-yl)phenyl)-1-((tetrahydro-2H-pyran-4-yl)methyl)-1H-imidazo[4,5-b]pyrazin-2(3H)-one] | 212 to 214 °C
O=c1[nH]c2ncc(-c3ccc4[nH]ccc4c3)nc2n1CC1CCOCC1 [Compound 146, 6-(1H-Indol-5-yl)-1-((tetrahydro-2H-pyran-4-yl)methyl)-1H-imidazo[4,5-b]pyrazin-2(3H)-one] | 305 to 308 °C
NC(=O)c1ccc(-c2cnc3[nH]c(=O)n(CCC4CCOCC4)c3n2)cc1 [Compound 149, 4-(2-oxo-3-(2-(Tetrahydro-2H-pyran-4-yl)ethyl)-2,3-dihydro-1H-imidazo[4,5-b]pyrazin-5-yl)benzamide] | 233 to 236 °C
O=c1[nH]c2ncc(-c3ccnc(O)c3)nc2n1CC1CCCCC1 [Compound 154, 1-(Cyclohexylmethyl)-6-(2-hydroxypyridin-4-yl)-1H-imidazo[4,5-b]pyrazin-2(3H)-one] | 311 to 313 °C
O=c1[nH]c2ncc(-c3ccc(O)cc3)nc2n1CC1CCCO1 (stereo not drawn) [Compound 165, 6-(4-Hydroxyphenyl)-1-((tetrahydrofuran-2-yl)methyl)-1H-imidazo[4,5-b]pyrazin-2(3H)-one] | 256 to 258 °C
Cn1cc(-c2cnc3[nH]c(=O)n(CC4CCOCC4)c3n2)cn1 [Compound 170, 6-(1-Methyl-1H-pyrazol-4-yl)-1-((tetrahydro-2H-pyran-4-yl)methyl)-1H-imidazo[4,5-b]pyrazin-2(3H)-one] | 224 to 226 °C

Further lines, results first:

melting point | Structure (SMILES)
226 to 228 °C | CC(C)(O)c1ccc(-c2cnc3[nH]c(=O)n(CC4CCCCC4)c3n2)cc1 [Compound 114, 1-(Cyclohexylmethyl)-6-(4-(2-hydroxypropan-2-yl)phenyl)-1H-imidazo[4,5-b]pyrazin-2(3H)-one]
> 350 °C | O=C(O)c1ccc(-c2cnc3[nH]c(=O)n(CC4CCCCC4)c3n2)cc1 [Compound 116, 4-(3-(Cyclohexylmethyl)-2-oxo-2,3-dihydro-1H-imidazo[4,5-b]pyrazin-5-yl)benzoic acid]
253 to 255 °C | O=c1[nH]c2ncc(-c3ccccc3)nc2n1CC1CCCCC1 [Compound 124, 1-(Cyclohexylmethyl)-6-phenyl-1H-imidazo[4,5-b]pyrazin-2(3H)-one]
313 to 316 °C | O=C1Cc2cc(-c3cnc4[nH]c(=O)n(CC5CCCCC5)c4n3)ccc2N1 [Compound 129, 1-(Cyclohexylmethyl)-6-(2-oxoindolin-5-yl)-1H-imidazo[4,5-b]pyrazin-2(3H)-one]
311 to 313 °C | O=c1[nH]c2ncc(-c3ccc4[nH]ncc4c3)nc2n1CC1CCCCC1 [Compound 130, 1-(Cyclohexylmethyl)-6-(1H-indazol-5-yl)-1H-imidazo[4,5-b]pyrazin-2(3H)-one]
235 to 237 °C | COc1ccc(-c2cnc3[nH]c(=O)n(CC4CCCCC4)c3n2)cn1 [Compound 131, 1-(Cyclohexylmethyl)-6-(6-methoxypyridin-3-yl)-1H-imidazo[4,5-b]pyrazin-2(3H)-one]
> 400 °C | O=c1[nH]c2ncc(-c3ccc(O)nc3)nc2n1CC1CCCCC1 [Compound 135, 1-(Cyclohexylmethyl)-6-(6-hydroxypyridin-3-yl)-1H-imidazo[4,5-b]pyrazin-2(3H)-one]
217 to 220 °C | O=c1[nH]c2ncc(-c3ccc4[nH]cnc4c3)nc2n1CC1CCCCC1 [Compound 148, 6-(1H-Benzo[d]imidazol-5-yl)-1-(cyclohexylmethyl)-1H-imidazo[4,5-b]pyrazin-2(3H)-one]
299 to 301 °C | O=c1[nH]c2ncc(-c3cccc(-c4cn[nH]n4)c3)nc2n1CC1CCCCC1 [Compound 150, 6-(3-(2H-1,2,3-Triazol-4-yl)phenyl)-1-(cyclohexylmethyl)-1H-imidazo[4,5-b]pyrazin-2(3H)-one]
284 to 287 °C | O=c1[nH]c2ncc(-c3ccc(-n4ccnc4)cc3)nc2n1CC1CCCCC1 [Compound 151, 6-(4-(1H-Imidazol-1-yl)phenyl)-1-(cyclohexylmethyl)-1H-imidazo[4,5-b]pyrazin-2(3H)-one]
349 to 351 °C | O=c1[nH]c2ncc(-c3ccc(-c4ncc[nH]4)cc3)nc2n1CC1CCCCC1 [Compound 156, 6-(4-(1H-Imidazol-2-yl)phenyl)-1-(cyclohexylmethyl)-1H-imidazo[4,5-b]pyrazin-2(3H)-one]
276 to 278 °C | O=c1[nH]c2ncc(-c3ccc(-n4ccnn4)cc3)nc2n1CC1CCCCC1 [Compound 157, 6-(4-(1H-1,2,3-Triazol-1-yl)phenyl)-1-(cyclohexylmethyl)-1H-imidazo[4,5-b]pyrazin-2(3H)-one]
315 to 318 °C | Cc1nc(-c2ccc(-c3cnc4[nH]c(=O)n(CC5CCCCC5)c4n3)cc2)n[nH]1 [Compound 159, 1-(Cyclohexylmethyl)-6-(4-(5-methyl-1H-1,2,4-triazol-3-yl)phenyl)-1H-imidazo[4,5-b]pyrazin-2(3H)-one]
292 to 294 °C | O=c1[nH]c2ncc(-c3ccc(-c4cc[nH]n4)cc3)nc2n1CC1CCCCC1 [Compound 160, 6-(4-(1H-Pyrazol-3-yl)phenyl)-1-(cyclohexylmethyl)-1H-imidazo[4,5-b]pyrazin-2(3H)-one]
305 to 307 °C | O=c1[nH]c2ncc(-c3ccc(-c4cn[nH]c4)cc3)nc2n1CC1CCCCC1 [Compound 161, 6-(4-(1H-Pyrazol-4-yl)phenyl)-1-(cyclohexylmethyl)-1H-imidazo[4,5-b]pyrazin-2(3H)-one]
303 to 305 °C | O=c1[nH]c2ncc(-c3ccc(-c4n[nH]c(C(F)(F)F)n4)cc3)nc2n1CC1CCCCC1 [Compound 163, 1-(Cyclohexylmethyl)-6-(4-(5-(trifluoromethyl)-1H-1,2,4-triazol-3-yl)phenyl)-1H-imidazo[4,5-b]pyrazin-2(3H)-one]
305 to 307 °C | O=c1[nH]c2ncc(-c3cccc(-c4nc[nH]n4)c3)nc2n1CC1CCCCC1 [Compound 166, 6-(3-(1H-1,2,4-Triazol-3-yl)phenyl)-1-(cyclohexylmethyl)-1H-imidazo[4,5-b]pyrazin-2(3H)-one]
